Source: patent US7858394B2, “Test methods for determining the intracellular concentration of cyclic nucleotides” (Axxam SpA, priority 2003, dated 2010)

Key:
[1] = system: soluble guanylate cyclase; test: Luminescence measurement of intracellular cGMP in a cell line expressing the CNG2 channel, a calcium-sensitive photoprotein and soluble guanylate cyclase; type: cell-based; settings: dose-dependent; RLUs measured for 1 min; FIG. 2
Procedure: (§1) The cells are seeded for the measurements on 384-well microtitre plates (MTPs) at 1500 cells per well and on 1536-well MTPs at 250 cells per well. After 1-2 days of growth at 37° C./5% CO2, the cell culture medium (DMEM/F12 containing 10% foetal calf serum) is removed and the cells are charged with coelenterazine (0.8 μg/ml) in calcium-free Tyrode's at 37° C./5% CO2 for 3 h. Subsequently, test substances and appropriate control substances (e.g. SIN-1 or isoprenaline) are added in calcium-free Tyrode's and incubated on the cells for 5-10 min. The extra measurement is then carried out in a light-tight box by adding calcium-containing Tyrode's via a comb (final calcium concentration: 3 mM), with the aid of a charge-coupled device camera.

Procedure for β-adrenergic receptor: as §1
To measure the effects of substances directly, the cells are charged with coelenterazine in calcium-containing Tyrode's. The substances are then added within the light-tight box and measurement commences immediately with addition of the substances (FIG. 5).
If the cells are charged with coelenterazine in calcium-containing Tyrode's, the agonist isoprenaline may also be added directly to the cells within the light-tight box.

Row | Compound | luminescence signal (intracellular cGMP concentration) after activation of soluble guanylate cyclase [1] | time until luminescence signal is observed after addition of agonist (β-adrenergic receptor; cells charged with coelenterazine in calcium-containing Tyrode's, agonist 10^-6 M added directly within the light-tight box, FIG. 5) | luminescence signal (intracellular cAMP concentration) after activation of the β-adrenergic receptor (β-adrenergic receptor; dose-dependent, 10 min incubation in calcium-free Tyrode's, measurement started by adding calcium, 0, 10^-7 M, 10^-6 M, FIG. 4)
1 | [NH-]c1c[n+](N2CCOCC2)no1 [SIN-1] | enhanced luminescence signal |  | 
2 | CC(C)NCC(O)c1ccc(O)c(O)c1 (stereo not drawn) [isoprenaline] |  | within a few seconds | enhanced lumiscence signal
